# Measured values taken from publication PMC1624820, “Inhibition of secreted phospholipase A2 by neuron survival and anti-inflammatory peptide CHEC-9” (Journal of Neuroinflammation, 2006).
# Entries after “also recorded” stand apart in the source; their conditions may differ. Where two headings read alike, the source gives them in different places.
# Assays:
# sPLA2 group I [1] = assay: native polyacrylamide gel electrophoresis, enzyme migration; set-up: species or system Naja mossambica; conditions: for sPLA2 band on native gel, with peptide and substrate: 26 μM sPLA2, 40 μM CHEC-9, 560 μM substrate, 2 mM CaCl2, pH 7.4, room temperature 30 min, repeated four times
# Procedure: Polyacrylamide gradient gels (5–15%) were run with and without SDS or reducing agents using sPLA2 group I alone or after mixing the enzyme with different combinations of the components of the reaction mixture (or their solvents). Samples prepared for the native gels were 50 μl containing 26 μM sPLA2, 40 μM CHEC-9, 560 μM 1-Palmitoyl-2-Pyrenedecanoyl Phosphatidylcholine (substrate), and 2 mM CaCl2 in 20 mM tris buffer (pH = 7.4), incubated together at room temperature for 30 min. After incubation, the samples were evaporated to 20 μl. The samples were then mixed with sample buffer containing only glycerol and bromophenol blue in 0.1 M tris (pH = 6.8) and loaded onto the gels. Following electrophoresis, the gels were washed, fixed, and stained with silver reagent according to conventional methods. The native gel experiment, using different reactant combinations run side by side (Fig. 3), was repeated four times with the same result.
# sPLA2 [2] = tested on: sPLA2
# Procedure: (§1) Enzyme assays were conducted at ambient temperature (22–25°) using a Victor 3 fluorescent reader (Perkin Elmer, Nutley NJ). The substrate was 1-Palmitoyl-2-Pyrenedecanoyl Phosphatidylcholine ("10-pyrene", Caymen Chemical, Ann Arbor MI) a substrate for all calcium dependent PLA2s with the exception of cPLA2 and PAF-AH. The substrate (supplied in chloroform) was dried under a nitrogen stream, quickly dissolved in ethanol, and stored at -20° prior to use. Substrate solutions were prepared in reaction buffer consisting of 50 mM tris (pH = 7.4), 0.1 M NaCl, 2 mM CaCl2, 0.25% fatty acid-free albumin (Sigma) and the CHEC-9 peptide at the indicated concentrations. CHEC-9 ([…]) was synthesized by Celtek, (Nashville, TN), purified and cross-linked as described previously, and aliquots stored in tris buffer or DMEM vehicles at -80°. The 10-pyrene substrate forms phospholipids vesicles in aqueous solutions [13], and upon hydrolysis, releases 10-pyrenyldecanoic acid. This product is fluorescent in the presence of albumin and was measured at 350 nm excitation, 405 nm emission. Plasma samples were 20% final concentration in the reaction mixture, and all enzyme reactions were initiated with the addition of the substrate solution to the sPLA2 containing samples. Kinetic parameters including the properties of CHEC-9 were determined by measuring the initial velocities (Vo) of enzyme reactions (within 2 minutes of initiation). […] This rate is proportional to the concentration of active enzyme in the plasma if product formation during this period is linear with respect to time (see Fig. 6). In most experiments, relative fluorescent units (RFU) were converted to product concentration using a pyrenyldecanoic acid standard curve (Molecular Probes, Eugene, OR). […] Individual reactions were carried out in duplicate or triplicate and kinetic curves were produced using 5–6 substrate concentrations, with or without peptide, reacted simultaneously. […] Km and Vmax and r^2 were determined with regression software (Prism) from Graphpad (San Diego, CA).
# (§2) The characteristics of CHEC-9 inhibition were determined using both classical characterization of inhibitor types, i.e., the direction of changes in Km and Vmax, and more recent reports that derive consistent relationships between the extent of enzyme inhibition and substrate concentration. […] We have repeated, combined, and rearranged some of their equations below in order to show the calculations used in the present experiments.
# rat plasma sPLA2 = assay: 10-pyrene fluorescence enzyme assay, rat plasma sPLA2 (ex vivo); type: biochemical, rat (Sprague Dawley)
# Procedure: (§3) Purified secreted phospholipase A2 group I from the venom of the Mozambique cobra (Naja mossambica) was obtained from Sigma. Blood was obtained from the trunk of 20 female Sprague Dawley rats (200–250 g) after decapitation, and by venipunture of 14 healthy adult humans of both sexes. Blood samples from 8 additional rats were collected following subcutaneous injections of 100 μg CHEC-9 or DMEM vehicle. These rats were placed in a standard rat restrainer during the collection period and the samples obtained via a tail nick. All specific procedures of this study were approved by both the Institutional Animal Care and Use Committee and by Institutional Review Board of Drexel University College of Medicine. Blood samples were treated with citrate-phosphate-dextrose anticoagulant (1:10, Sigma), and plasma prepared by centrifugation, before freezing at -80° until used in the enzyme assays. For the ex vivo studies, individual plasma samples were pooled from 3–7 rats or 3–5 humans.
# Enzyme assays were conducted at ambient temperature (22–25°) using a Victor 3 fluorescent reader (Perkin Elmer, Nutley NJ). The substrate was 1-Palmitoyl-2-Pyrenedecanoyl Phosphatidylcholine ("10-pyrene", Caymen Chemical, Ann Arbor MI) a substrate for all calcium dependent PLA2s with the exception of cPLA2 and PAF-AH. The substrate (supplied in chloroform) was dried under a nitrogen stream, quickly dissolved in ethanol, and stored at -20° prior to use. Substrate solutions were prepared in reaction buffer consisting of 50 mM tris (pH = 7.4), 0.1 M NaCl, 2 mM CaCl2, 0.25% fatty acid-free albumin (Sigma) and the CHEC-9 peptide at the indicated concentrations. CHEC-9 ([…]) was synthesized by Celtek, (Nashville, TN), purified and cross-linked as described previously, and aliquots stored in tris buffer or DMEM vehicles at -80°. The 10-pyrene substrate forms phospholipids vesicles in aqueous solutions [13], and upon hydrolysis, releases 10-pyrenyldecanoic acid. This product is fluorescent in the presence of albumin and was measured at 350 nm excitation, 405 nm emission. Plasma samples were 20% final concentration in the reaction mixture, and all enzyme reactions were initiated with the addition of the substrate solution to the sPLA2 containing samples. Kinetic parameters including the properties of CHEC-9 were determined by measuring the initial velocities (Vo) of enzyme reactions (within 2 minutes of initiation). […] Km and Vmax and r^2 were determined with regression software (Prism) from Graphpad (San Diego, CA).
# The characteristics of CHEC-9 inhibition were determined using both classical characterization of inhibitor types, i.e., the direction of changes in Km and Vmax, and more recent reports that derive consistent relationships between the extent of enzyme inhibition and substrate concentration. […]
# sPLA2 [3] = conditions: 100 μg CHEC-9 s.c.
# Procedure: as §3, with “For the ex vivo studies, individual plasma samples were pooled from 3–7 rats or 3–5 humans.” left out
# Enzyme assays were conducted at ambient temperature (22–25°) using a Victor 3 fluorescent reader (Perkin Elmer, Nutley NJ). […] This product is fluorescent in the presence of albumin and was measured at 350 nm excitation, 405 nm emission. […] Kinetic parameters including the properties of CHEC-9 were determined by measuring the initial velocities (Vo) of enzyme reactions (within 2 minutes of initiation). […] Km and Vmax and r^2 were determined with regression software (Prism) from Graphpad (San Diego, CA).
# cerebral cortex lesions = tested on: cerebral cortex lesions; set-up: method as in PMID 15684658; conditions: rat, ref [6], cited from earlier work
# Human Plasma sPLA2 = assay: 10-pyrene fluorescence enzyme assay, human plasma sPLA2 (ex vivo); type: biochemical; conditions: for Vmax: without inhibitor 2.07; for Km: without inhibitor 66.52
# Procedure: as §3, §1, §2
# (§4) KiNR is the apparent inhibition constant based on inhibition degree and is independent of inhibitor classification. This value varies predictably with substrate concentration for different inhibitor types. It is defined as: […]
# sPLA2 group I [4] = assay: 10-pyrene fluorescence enzyme assay, sPLA2 group I (Lineweaver-Burke / Michaelis-Menton); type: biochemical, Naja mossambica; conditions: for Km: without inhibitor 18.80; for Km / Vmax: 5 nM sPLA2, 10-pyrene 2-7 μM, nonlinear regression of Vo; for Vmax: without inhibitor 21.67; for reduction of Vo with varied enzyme concentration: sPLA2 2, 6, 10 nM, CHEC-9 0.1, 1, 10 nM
# Procedure: as §3, §1, §2, §4
# [5] = CHEC-9 10.0 nM, 20% plasma, 10-pyrene 5–30 μM, pH 7.4, 22–25°
# [6] = CHEC-9 50.0 nM, 20% plasma, 10-pyrene 5–30 μM, pH 7.4, 22–25°
sequence,measurement,setting,value
"CHEASAAQC [CHEC-9, nonapeptide CHEC-9 (…), internal fragment of DSEP/Dermcidin/PIF, synthesized by Celtek, purified and cross-linked]","sPLA2 band on native gel, with peptide and substrate",sPLA2 group I [1],absent or at least dramatically reduced
same,"sPLA2 band on native gel, with peptide and substrate",sPLA2 group I [1]; listed as peptide,disappeared or was markedly attenuated
same,"sPLA2 band on native gel, peptide alone","sPLA2 group I [1]; 26 μM sPLA2, 40 μM CHEC-9, no substrate, pH 7.4, room temperature 30 min",The same band appeared
same,specificity,sPLA2 [2]; plasma and venom-derived sPLA2,broad specificity
same,Ki,"sPLA2 [2]; read-out: Ki (individual experiments), individual experiments repeated 5 or more times, pH 7.4, 22–25°",< 100 nM
same,Ki,"sPLA2 [2]; read-out: Ki values (all cases), venom-derived sPLA2 group I and plasma of rats and humans",< 100 nM
same,type of inhibition (all enzyme sources),"sPLA2 [2]; venom-derived sPLA2 group I, plasma of rats and humans",uncompetitive (or anti-competitive) enzyme inhibitor
same,"inhibition with increased substrate concentrations, rat plasma","rat plasma sPLA2; 25 nM CHEC-9, 20% plasma, increased substrate, mean of three reactions",this delay of the inhibition is not detected
same,"inhibition at very low substrate concentrations, rat plasma","rat plasma sPLA2; 25 nM CHEC-9, 20% plasma, very low substrate, mean of three reactions",delayed inhibition at the lower substrate concentrations
same,"inhibition at lower substrate concentrations, rat plasma","rat plasma sPLA2; lower substrate concentrations, product formation relatively stable",inhibition by CHEC-9 was readily observed
same,"effect at high substrate concentrations (substrate inhibition), rat plasma",rat plasma sPLA2; substrate > 25 μM,would sometimes reverse this inhibitory effect
same,level of active sPLA2 vs pre-injection,"sPLA2 [3]; restrained rats, n = 4, on average","holding the level of active enzyme, on average, near pre-injection values"
same,significance of sPLA2 reduction vs vehicle,"sPLA2 [3]; p < 0.05 by Mann Whitney test, n = 4 rats per group",significant differences at 30 and 60 minutes
same,duration of anti-inflammatory and neuron survival effects,cerebral cortex lesions; a subcutaneous injection after cerebral cortex lesions,at least 4 days
same,anti-inflammatory and neuron survival effects,cerebral cortex lesions; subcutaneous injection after cerebral cortex lesions,inhibit neuron death and aspects of the inflammatory response; also recorded: anti-inflammatory and neuron survival effects
same,"type of inhibition, human plasma","Human Plasma sPLA2; 20% plasma, 10-pyrene 5–30 μM",consistent with the properties of an uncompetitive inhibitor
same,Vmax,Human Plasma sPLA2; [5],1.42 μM/min/ml
same,Km,Human Plasma sPLA2; [5],40.8 µM
same,Vmax,Human Plasma sPLA2; [6],0.973 μM/min/ml
same,Km,Human Plasma sPLA2; [6],24.1 µM
same,"change of Km and Vmax, human plasma","Human Plasma sPLA2; CHEC-9 10, 50 nM, 20% plasma",Km and Vmax of plasma samples were both reduced by CHEC-9
same,Ki,"Human Plasma sPLA2; Human plasma sPLA2, 20% plasma, uncompetitive, Ki = KiNR/(1+(Km/[S])), pH 7.4, 22–25°",62 ± 13.2 nM
same,"effect on enzyme activity at lowest substrate concentrations, human plasma","Human Plasma sPLA2; CHEC-9 10, 50 nM",less effective or even exaggerated the reaction at the lower substrate concentrations
same,"effect on enzyme activity at lowest substrate concentrations, human plasma","Human Plasma sPLA2; CHEC-9 10, 50 nM, listed as peptide",exaggerated enzyme activity in human plasma at the lowest substrate concentrations used
same,KiNR (apparent inhibition constant) vs substrate concentration,"sPLA2 group I [4]; 10-pyrene 2-7 μM, 5 nM sPLA2, CHEC-9 0.1, 1.0, 10 nM",varied inversely with the substrate concentration; also recorded: overall decline in this value with increasing substrate concentration for each peptide concentration
same,Km,"sPLA2 group I [4]; CHEC-9 0.1 nM, pH 7.4, 22–25°",10.8 µM
same,Vmax,"sPLA2 group I [4]; CHEC-9 0.1 nM, pH 7.4, 22–25°",11.54 nM/min/ng
same,Km,"sPLA2 group I [4]; CHEC-9 1.0 nM, pH 7.4, 22–25°",3.4 µM
same,Vmax,"sPLA2 group I [4]; CHEC-9 1.0 nM, pH 7.4, 22–25°",5.56 nM/min/ng
same,Km,"sPLA2 group I [4]; CHEC-9 10.0 nM, pH 7.4, 22–25°",2.26 µM
same,Vmax,"sPLA2 group I [4]; CHEC-9 10.0 nM, pH 7.4, 22–25°",4.04 nM/min/ng
same,change of Vmax and Km,sPLA2 group I [4]; CHEC-9 0.1-10 nM,reduced both the Vmax and Km of the enzyme reaction
same,effect of CHEC-9 below 10 nM on Vo at 2 nM or 6 nM sPLA2,"sPLA2 group I [4]; CHEC-9 lower than 10 nM, 2 nM or 6 nM sPLA2, 6 μM 10-pyrene",minimally effective or ineffective at 2 nM or 6 nM sPLA2
same,effect of CHEC-9 below 10 nM on Vo at 10 nM sPLA2,"sPLA2 group I [4]; CHEC-9 lower than 10 nM, 10 nM sPLA2, 6 μM 10-pyrene",produced consistent reductions in reaction velocity when used with 10 nM enzyme
same,Ki,"sPLA2 group I [4]; Group I sPLA2, uncompetitive, Ki = KiNR/(1+(Km/[S])), pH 7.4, 22–25°",4.02 ± 1.56 nM
same,effect on Vo at lowest substrate concentrations,sPLA2 group I [4]; lowest substrate concentrations,"minimally effective, ineffective, or even potentiated Vo"
same,velocity of the enzyme reaction (Vo),"sPLA2 group I [4]; nanomolar CHEC-9, substrate one-half Km or less",reduced by nanomolar concentrations of CHEC-9
same,reduction of Vo with varied enzyme concentration,sPLA2 group I [4]; 6 μM 10-pyrene,maximal reductions of Vo occurred at 10 nM sPLA2
same,reduction of Vo with varied enzyme concentration,"sPLA2 group I [4]; 6 μM 10-pyrene, listed as peptide","most effective at the highest concentration of sPLA2, and showed declining efficacy at the lower enzyme concentrations"
same,"type of inhibition, sPLA2 group I",sPLA2 group I [4]; substrate at one-half Km or less,most consistent with an uncompetitive (or anti-competitive) inhibitor of sPLA2 group I
